In ChEMBL document CHEMBL4823255, “Discovery of novel potent migrastatic Thiazolo[5,4-b]pyridines targeting Lysyl-tRNA synthetase (KRS) for treatment of Cancer metastasis” (Eur J Med Chem, 2021):
Active and inactive are the calls of the source. No cut-off for these calls is given here.

Experiments:
MDA-MB-231 [1] = assay: Antimigratory activity against tetracycline-induced KRS T52D mutant overexpressing human MDA-MB-231 cells assessed as inhibition of cell migration at 3 uM measured after 4 hrs by flourescence plate reader method; type: functional
CYP3A4 = CYP3A4 (Homo sapiens, UniProt P08684); assay: Inhibition of CYP3A4 (unknown origin) assessed as enzyme residual activity at 10 uM; type: ADME; conditions: read-out: Activity
CYP3A4, sequence (P08684 whole entry): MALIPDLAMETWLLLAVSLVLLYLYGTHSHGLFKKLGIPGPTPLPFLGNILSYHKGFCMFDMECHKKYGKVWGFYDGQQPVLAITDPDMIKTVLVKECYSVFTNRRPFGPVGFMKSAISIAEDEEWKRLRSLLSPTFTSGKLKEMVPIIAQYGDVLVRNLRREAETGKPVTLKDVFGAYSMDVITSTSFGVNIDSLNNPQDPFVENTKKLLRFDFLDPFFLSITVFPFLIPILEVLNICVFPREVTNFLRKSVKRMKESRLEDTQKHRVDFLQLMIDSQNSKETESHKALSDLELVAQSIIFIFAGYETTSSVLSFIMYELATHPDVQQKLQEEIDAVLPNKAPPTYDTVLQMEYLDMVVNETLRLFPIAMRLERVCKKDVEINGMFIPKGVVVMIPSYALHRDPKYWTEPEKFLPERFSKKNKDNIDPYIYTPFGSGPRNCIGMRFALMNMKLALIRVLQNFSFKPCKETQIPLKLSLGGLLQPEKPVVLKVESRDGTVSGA

CYP2C9 = CYP2C9 (Homo sapiens, UniProt P11712); assay: Inhibition of CYP2C9 (unknown origin) assessed as enzyme residual activity at 10 uM; type: ADME; conditions: read-out: Activity
CYP2C9, sequence (P11712 whole entry): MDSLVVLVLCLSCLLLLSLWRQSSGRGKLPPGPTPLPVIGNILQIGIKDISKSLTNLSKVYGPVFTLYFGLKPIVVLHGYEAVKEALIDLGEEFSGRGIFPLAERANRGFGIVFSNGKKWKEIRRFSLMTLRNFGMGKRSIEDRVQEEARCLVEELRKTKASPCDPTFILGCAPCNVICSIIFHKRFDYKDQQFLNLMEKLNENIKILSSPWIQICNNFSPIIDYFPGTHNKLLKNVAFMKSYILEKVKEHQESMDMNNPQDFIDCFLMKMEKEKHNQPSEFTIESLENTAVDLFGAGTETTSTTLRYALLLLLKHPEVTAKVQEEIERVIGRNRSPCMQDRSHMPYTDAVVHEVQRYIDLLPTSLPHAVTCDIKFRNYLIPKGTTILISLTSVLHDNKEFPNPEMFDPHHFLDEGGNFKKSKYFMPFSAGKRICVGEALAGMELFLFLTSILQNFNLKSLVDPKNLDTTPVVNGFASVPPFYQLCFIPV

CYP1A2 = target: T1, CYP1A2 (Homo sapiens, UniProt P05177); assay: Inhibition of CYP1A2 (unknown origin) assessed as enzyme residual activity at 10 uM; type: ADME; conditions: read-out: Activity
T1 sequence (P05177 whole entry): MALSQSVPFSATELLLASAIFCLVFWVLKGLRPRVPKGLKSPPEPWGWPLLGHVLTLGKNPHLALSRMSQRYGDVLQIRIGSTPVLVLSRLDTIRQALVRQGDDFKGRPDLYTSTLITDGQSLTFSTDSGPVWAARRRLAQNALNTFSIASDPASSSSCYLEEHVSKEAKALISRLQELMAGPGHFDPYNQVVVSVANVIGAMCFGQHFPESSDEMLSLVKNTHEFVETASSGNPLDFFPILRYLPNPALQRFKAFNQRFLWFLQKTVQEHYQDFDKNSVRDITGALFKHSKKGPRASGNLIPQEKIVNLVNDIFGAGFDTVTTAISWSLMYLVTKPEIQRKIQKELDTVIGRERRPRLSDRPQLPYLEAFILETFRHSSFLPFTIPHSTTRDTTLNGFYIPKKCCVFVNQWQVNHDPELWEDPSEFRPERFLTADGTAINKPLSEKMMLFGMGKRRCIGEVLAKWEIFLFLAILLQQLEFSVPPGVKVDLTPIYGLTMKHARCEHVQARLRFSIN

CYP2C19 = CYP2C19 (Homo sapiens, UniProt P33261); assay: Inhibition of CYP2C19 (unknown origin) assessed as enzyme residual activity at 10 uM; type: ADME; conditions: read-out: Activity
CYP2C19, sequence (P33261 whole entry, the tested form may be a part): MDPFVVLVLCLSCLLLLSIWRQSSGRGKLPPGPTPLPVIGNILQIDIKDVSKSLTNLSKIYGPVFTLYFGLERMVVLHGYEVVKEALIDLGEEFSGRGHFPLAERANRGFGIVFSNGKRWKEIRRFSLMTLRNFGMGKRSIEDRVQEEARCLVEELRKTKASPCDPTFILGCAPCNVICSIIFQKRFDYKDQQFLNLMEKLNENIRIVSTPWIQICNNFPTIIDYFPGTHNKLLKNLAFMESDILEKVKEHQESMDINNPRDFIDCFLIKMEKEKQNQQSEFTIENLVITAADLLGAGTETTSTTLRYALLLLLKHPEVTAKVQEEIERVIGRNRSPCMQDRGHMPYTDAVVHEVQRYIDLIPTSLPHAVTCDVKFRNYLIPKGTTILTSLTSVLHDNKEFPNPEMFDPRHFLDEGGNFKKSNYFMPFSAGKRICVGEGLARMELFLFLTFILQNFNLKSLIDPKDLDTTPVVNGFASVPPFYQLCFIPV

Lysine--tRNA ligase [2] = target: T2, Lysine--tRNA ligase (Homo sapiens, UniProt Q15046); assay: Binding affinity to human N-terminal His6-tagged 15N-labelled KRS (1 to 207 residues) expressed in Escherichia coli BL21(DE3) measured by flourescence based binding titration assay
Target sequence in this assay (Q15046 whole entry, the tested form may be a part): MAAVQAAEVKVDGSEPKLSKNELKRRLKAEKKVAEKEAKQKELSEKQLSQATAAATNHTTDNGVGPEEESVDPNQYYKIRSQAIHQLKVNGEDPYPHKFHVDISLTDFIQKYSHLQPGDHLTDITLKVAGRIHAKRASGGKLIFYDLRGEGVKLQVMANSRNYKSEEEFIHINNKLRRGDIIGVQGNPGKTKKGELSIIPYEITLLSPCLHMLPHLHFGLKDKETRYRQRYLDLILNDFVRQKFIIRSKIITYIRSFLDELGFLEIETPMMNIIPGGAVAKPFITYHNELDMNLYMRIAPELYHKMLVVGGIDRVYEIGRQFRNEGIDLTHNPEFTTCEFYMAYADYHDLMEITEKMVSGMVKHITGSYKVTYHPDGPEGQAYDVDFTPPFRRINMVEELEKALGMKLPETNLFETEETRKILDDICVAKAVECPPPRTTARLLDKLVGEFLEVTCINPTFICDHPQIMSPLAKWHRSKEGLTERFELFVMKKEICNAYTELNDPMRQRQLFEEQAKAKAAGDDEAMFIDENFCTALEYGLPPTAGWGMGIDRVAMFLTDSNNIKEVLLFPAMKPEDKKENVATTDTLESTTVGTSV

[3] = Volume of distribution at steady state in mouse at 5 mg/kg, iv measured after 24 hrs; type: ADME, organism-based; conditions: in vivo, read-out: Vdss
MDA-MB-231 [4] = assay: Antimigratory activity against tetracycline-induced KRS T52D mutant overexpressing human MDA-MB-231 cells assessed as inhibition of cell migration measured after 4 hrs by flourescence plate reader method; type: functional, cell-based; conditions: MDA-MB-231, 4 h
[5] = Tmax in mouse at 5 mg/kg, po measured after 24 hrs; type: ADME, organism-based; conditions: in vivo
[6] = Half life in mouse at 5 mg/kg, po measured after 24 hrs; type: ADME, organism-based; conditions: in vivo
[7] = Cmax in mouse at 5 mg/kg, po measured after 24 hrs; type: ADME, organism-based; set-up: route oral, dose 5 mg/kg, time 24 hrs; conditions: in vivo
[8] = Toxicity in Balb/cAnCr mouse xenografted with mouse 4T1 cells assessed as change in body weight at 100 mg/kg, po administered for 16 days; type: organism-based; conditions: in vivo, 384 h, time 16 day
[9] = Metabolic stability in rat liver microsomes assessed as parent compound remaining measured after 30 mins; type: ADME, Microsome; conditions: read-out: Stabilty
[10] = Oral bioavailability in mouse at 5 mg/kg measured after 24 hrs; type: ADME, organism-based; conditions: in vivo
[11] = Half life in mouse at 5 mg/kg, iv measured after 24 hrs; type: ADME, organism-based; conditions: in vivo
Lysine--tRNA ligase [12] = target: T2, Lysine--tRNA ligase; assay: Binding affinity to human N-terminal His6-tagged 15N-labelled KRS (1 to 207 residues) expressed in Escherichia coli BL21(DE3) at 0.4 mM by 1H-15N TROSY NMR analysis
Target sequence in this assay (Q15046 2-597 limits assumed): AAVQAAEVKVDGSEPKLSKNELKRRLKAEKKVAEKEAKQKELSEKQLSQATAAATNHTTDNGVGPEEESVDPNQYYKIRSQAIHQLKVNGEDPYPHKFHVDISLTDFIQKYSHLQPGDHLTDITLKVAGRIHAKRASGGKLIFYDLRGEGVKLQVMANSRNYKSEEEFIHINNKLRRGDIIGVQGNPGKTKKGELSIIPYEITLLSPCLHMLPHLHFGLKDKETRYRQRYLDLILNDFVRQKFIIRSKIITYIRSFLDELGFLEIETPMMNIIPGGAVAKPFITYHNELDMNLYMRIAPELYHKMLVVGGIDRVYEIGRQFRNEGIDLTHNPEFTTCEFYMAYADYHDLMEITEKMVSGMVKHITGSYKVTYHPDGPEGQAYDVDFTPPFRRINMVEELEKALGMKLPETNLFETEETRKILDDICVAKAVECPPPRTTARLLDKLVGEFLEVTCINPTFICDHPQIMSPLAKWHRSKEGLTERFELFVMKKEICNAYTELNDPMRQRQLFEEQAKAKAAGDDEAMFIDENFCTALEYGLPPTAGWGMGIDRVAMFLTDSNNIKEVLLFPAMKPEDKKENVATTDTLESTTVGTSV

[13] = AUC(t) in mouse at 5 mg/kg, po measured after 24 hrs; type: ADME, organism-based; set-up: route oral, time 24 hrs, dose 5 mg/kg; conditions: in vivo
[14] = Metabolic stability in human liver microsomes assessed as parent compound remaining measured after 30 mins; type: ADME, Microsome; conditions: read-out: Stabilty
[15] = Permeability of the compound at 50 uM measured after 4 hrs by PAMPA assay; type: ADME; conditions: read-out: permeability
[16] = Clearance in mouse at 5 mg/kg, iv measured after 24 hrs; type: ADME, organism-based; conditions: in vivo
4T1 = assay: Anti-metastasis activity in mouse 4T1 cells xenografted in BALB/cAnCr mouse at 100 mg/kg, po administered for 16 days; type: functional, organism-based; conditions: time 16.0 day
[17] = AUC(infinity) in mouse at 5 mg/kg, iv measured after 24 hrs; type: ADME, organism-based; set-up: route intravenous, time 24 hrs, dose 5 mg/kg; conditions: in vivo
CYP2D6 = CYP2D6 (Homo sapiens, UniProt P10635); assay: Inhibition of CYP2D6 (unknown origin) assessed as enzyme residual activity at 10 uM; type: ADME; conditions: read-out: Activity
CYP2D6, sequence (P10635 whole entry): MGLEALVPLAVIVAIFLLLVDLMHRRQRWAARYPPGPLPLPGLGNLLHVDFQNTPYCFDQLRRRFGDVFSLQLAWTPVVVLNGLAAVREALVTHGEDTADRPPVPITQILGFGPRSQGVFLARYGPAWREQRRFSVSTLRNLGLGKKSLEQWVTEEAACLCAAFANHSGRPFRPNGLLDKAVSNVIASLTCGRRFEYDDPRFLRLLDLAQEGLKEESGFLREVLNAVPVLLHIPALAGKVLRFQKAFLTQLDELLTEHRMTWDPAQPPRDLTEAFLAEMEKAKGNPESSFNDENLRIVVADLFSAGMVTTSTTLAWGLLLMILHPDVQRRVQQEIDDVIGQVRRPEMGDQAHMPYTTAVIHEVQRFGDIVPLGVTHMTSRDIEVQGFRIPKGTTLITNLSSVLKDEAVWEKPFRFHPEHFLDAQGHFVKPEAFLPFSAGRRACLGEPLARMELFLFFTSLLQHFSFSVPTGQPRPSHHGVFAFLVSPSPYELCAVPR

[18] = Metabolic stability in mouse liver microsomes assessed as parent compound remaining measured after 30 mins; type: ADME, Microsome; conditions: read-out: Stabilty
[19] = AUC(infinity) in mouse at 5 mg/kg, po measured after 24 hrs; type: ADME, organism-based; set-up: route oral, dose 5 mg/kg, time 24 hrs; conditions: in vivo
[20] = Metabolic stability in dog liver microsomes assessed as parent compound remaining measured after 30 mins; type: ADME, Canis lupus familiaris, Microsome; conditions: read-out: Stabilty
[21] = AUC(t) in mouse at 5 mg/kg, iv measured after 24 hrs; type: ADME, organism-based; set-up: route intravenous, dose 5 mg/kg, time 24 hrs; conditions: in vivo
NCI-H226 = assay: Antimigratory activity against human NCI-H226 cells assessed as inhibition of cell migration measured after 12 hrs by Transwell assay; type: functional, cell-based; conditions: NCI-H226, 12 h

SMILES: COc1ccc(CCN(Cc2ccc(C(=O)O)cc2)c2nc3ccccc3o2)cc1
- Activity (MDA-MB-231 [1]): Active

SMILES: COc1ccc(CCN(Cc2ccc(C(=O)O)cc2)c2nc3cc(F)cc(F)c3[nH]2)cc1
- Activity (MDA-MB-231 [1]): inactive

SMILES: COc1ccc(CCN(Cc2ccc(C(=O)O)cc2)c2nc3cc([N+](=O)[O-])ccc3o2)cc1
- Activity (MDA-MB-231 [1]): Active

SMILES: COc1ccc(CCN(Cc2ccc(C(=O)O)cc2)c2nc3cnccc3s2)cc1
- Activity (MDA-MB-231 [1]): inactive

SMILES: COc1ccc(CCN(Cc2ccc(C(=O)O)cc2)c2nc3cc(Cl)cnc3s2)cc1
- Activity (MDA-MB-231 [1]): inactive

SMILES: CC(=O)N1CCN(c2ccc(OCC3COC(Cn4ccnc4)(c4ccc(Cl)cc4Cl)O3)cc2)CC1 (centres undefined) [KETOCONAZOLE]
- activity at 10 µM (CYP3A4): 31.8%
- activity at 10 µM (CYP2C9): > 100%
- activity at 10 µM (CYP1A2): > 100%
- activity at 10 µM (CYP2C19): > 100%

SMILES: COc1ccc(CCN(Cc2ccc(C(=O)O)cc2)c2nc3cccnc3o2)cc1
- Activity (MDA-MB-231 [1]): Active

SMILES: COc1ccc(CCN(Cc2ccc(C(=O)O)cc2)c2nc3ccc(CO)cc3s2)cc1
- Activity (MDA-MB-231 [1]): inactive

SMILES: COc1ccc(CCN(Cc2ccc(C(=O)O)cc2)c2nc3ccc(C(=O)O)cc3s2)cc1
- Activity (MDA-MB-231 [1]): inactive

SMILES: COc1ccc(CCN(Cc2ccc(C(=O)O)cc2)c2nc3cccnc3s2)cc1
- Kd (Lysine--tRNA ligase [2]): 5.75 µM
- Vd [3]: 149 L/kg
- EC50 (MDA-MB-231 [4]): 0.081 µM
- Tmax [5]: 4.17 h
- half-life [6]: 1.56 h
- Cmax [7]: 40 ng/mL
- Activity [8]: Non-Toxic
- activity at 10 µM (CYP3A4): 98.4%
- remaining at 0.5 h [9]: 73%
- bioavailability [10]: 87.9%
- half-life [11]: 6.05 h
- Activity (Lysine--tRNA ligase [12]): Active
- activity at 10 µM (CYP2C9): 74.6%
- AUC(0-t) at 24 h [13]: 168 ng·h/mL
- remaining at 0.5 h [14]: 62.8%
- inhibition at 3 µM (MDA-MB-231 [1]): 70%
- Papp at 4 h, 50 µM [15]: 22.2 ×10⁻⁶ cm/s
- activity at 10 µM (CYP1A2): 91.1%
- activity at 10 µM (CYP2C19): 92.2%
- clearance [16]: 392 mL/min/kg
- Activity (4T1): Active
- AUC(0-inf) [17]: 216 ng·h/mL
- activity at 10 µM (CYP2D6): 97.9%
- remaining at 0.5 h [18]: 65.8%
- AUC(0-inf) [19]: 192 ng·h/mL
- remaining at 0.5 h [20]: 79.5%
- AUC(0-t) at 24 h [21]: 191 ng·h/mL

SMILES: COc1ccc(CCN(Cc2ccc(C(=O)O)cc2)c2nc3ccc[n+]([O-])c3s2)cc1
- Activity (MDA-MB-231 [1]): inactive

SMILES: COc1ccc(CCN(Cc2ccc(C(=O)O)cc2)c2nc3cncnc3s2)cc1
- Activity (MDA-MB-231 [1]): inactive

SMILES: Cc1cc(=O)n(-c2ccccc2)n1C [ANTIPYRINE]
- Papp at 4 h, 50 µM [15]: 1.94 ×10⁻⁶ cm/s

SMILES: CCC(C(=O)O)n1/c(=N/C(=O)c2cccc(C(F)(F)F)c2)sc2cc(F)c(F)cc21 (centres undefined)
- Kd (Lysine--tRNA ligase [2]): 49.2 µM
- EC50 (NCI-H226): 8.5 µM
- Activity (Lysine--tRNA ligase [12]): Active

SMILES: COc1ccc(CCN(Cc2ccc(C(=O)O)cc2)c2nc3ncccc3s2)cc1
- Activity (MDA-MB-231 [1]): inactive

SMILES: COc1ccc(CCN(Cc2ccc(C(=O)O)cc2)c2nc3cc(NC(=O)c4ccc(N5CCN(C)CC5)cc4)ccc3o2)cc1
- Activity (MDA-MB-231 [1]): inactive

SMILES: COc1ccc(CCN(Cc2ccc(C(=O)O)cc2)c2nc3cc(NC(=O)Cc4ccc(OC)cc4)ccc3o2)cc1
- Activity (MDA-MB-231 [1]): Active

SMILES: COc1ccc(CCN(Cc2ccc(C(=O)O)cc2)c2nc3cc(F)c(F)c(F)c3s2)cc1
- inhibition at 3 µM (MDA-MB-231 [1]): 28%
